Source: US20100317642A1, “PHARMACEUTICAL COMPOSITION OF ORLISTAT” (INVENTIS DDS PVT LIMITED, priority 2007, published 2010)

Legend:
[1] = Effect of elevated temperature on appearance and handling properties (hot air oven, Petri dishes); format: physicochemical; conditions: for Appearance and handling properties at elevated temperature: hot air oven
Excerpt: The affect of elevated temperature on appearance and handling properties on the orlistat compositions of this invention was studied by slowly increasing the temperature of a hot air oven in which these compositions were kept in Petri dishes. Pure orlistat also was subjected to this study. To carry out a comparison with the innovator's formulation Xenical®, its contents were emptied in a Petri dish. The observations of this study are given below—

[2] = within the physiological pH range; cited from earlier work

Appearance and handling properties at elevated temperature ([1]; 30 ° C.): No change
Appearance and handling properties at elevated temperature ([1]; 35 ° C., -do- = same as cell above): -do-
Appearance and handling properties at elevated temperature ([1]; 37 ° C., -do- = same as cell above): softens
Appearance and handling properties at elevated temperature ([1]; 40 ° C.): Starts melting
Appearance and handling properties at elevated temperature ([1]; 45 ° C., cells wrap: 'Slightly soft and sticky', 'Melts completely'): Melts
Appearance and handling properties at elevated temperature ([1]; 50 ° C., -do- = same as cell above, Xenical cell wraps: 'Slightly soft and sticky, becomes powdery on touching'): -do-
Appearance and hardness after heating ([1]; Cooled down to less than 30° C., cells wrap: 'Regains its original hardness', 'Does not retain its original appearance'): Does not retain
SMILES: CCCCCCCCCCC[C@@H](C[C@@H]1OC(=O)[C@H]1CCCCCC)OC(=O)[C@H](CC(C)C)NC=O [Orlistat, orlistat]
solubility in water [2]: very low solubility
